Results published in PubChem BioAssay (NCI).
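Growth conditions: 96-well plates. Treatment: test compound, 48 hours, 5 concentrations. Analysis: linear interpolation between bracketing concentrations; unreached endpoints set to highest concentration. The concentration for 50% growth inhibition is given as GI50. TGI is the concentration that stops growth completely.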

Assays:
Experiment in all cases: growth of human tumour cells (NCI), 48 h
[1] = test system: CAKI-1 renal
[2] = test system: HCC-2998 colon
[3] = test system: 786-0 renal
[4] = test system: OVCAR-4 ovarian
[5] = test system: RXF 393 renal
[6] = test system: NCI-H460 lung
[7] = test system: RPMI-8226 leukemia
[8] = test system: SN12C renal
[9] = test system: KM12 colon
[10] = test system: MCF7 breast
[11] = test system: CCRF-CEM leukemia
[12] = test system: MOLT-4 leukemia
[13] = test system: HS 578T breast
[14] = test system: IGROV1 ovarian
[15] = test system: HCT-116 colon
[16] = test system: NCI-H23 lung
[17] = test system: A549 NSCLC
[18] = test system: DU-145 prostate
[19] = test system: UACC-257 melanoma
[20] = test system: MALME-3M melanoma
[21] = test system: SW-620 colon
[22] = test system: EKVX NSCLC
[23] = test system: LOX IMVI melanoma
[24] = test system: HT29 colon
[25] = test system: SR leukemia
[26] = test system: COLO 205 colon
[27] = test system: HL-60(TB) leukemia
[28] = test system: TK-10 renal
[29] = test system: PC-3 prostate
[30] = test system: HOP-92 NSCLC
[31] = test system: K-562 leukemia
[32] = test system: SF-268 CNS
[33] = test system: SNB-19 CNS
[34] = test system: OVCAR-3 ovarian
[35] = test system: OVCAR-5 ovarian
[36] = test system: SF-539 CNS
[37] = test system: SK-MEL-5 melanoma
[38] = test system: BT-549 breast
[39] = test system: ACHN renal
[40] = test system: UO-31 renal
[41] = test system: SF-295 CNS
[42] = test system: MDA-MB-231 breast
[43] = test system: NCI/ADR-RES ovarian
[44] = test system: A498 renal
[45] = test system: MDA-MB-435
[46] = test system: SK-MEL-2 melanoma
[47] = test system: NCI-H226 lung
[48] = test system: SK-MEL-28 melanoma
[49] = test system: HCT-15 colon
[50] = test system: SK-OV-3 ovarian
[51] = test system: NCI-H522 lung
[52] = test system: HOP-62 NSCLC
[53] = test system: T-47D breast
[54] = test system: UACC-62 melanoma
[55] = test system: SNB-75 CNS
[56] = test system: U251 CNS
[57] = test system: OVCAR-8 ovarian
[58] = test system: M14 melanoma

`C[C@]12CC[C@H](O)C[C@@H]1CC[C@@H]1[C@@H]2CC[C@@]2(C)[C@H]1CC[C@@H]2[C@](C)(O)CCc1ccc(F)cc1` showed a GI50 [1] of 5.43 µM, a TGI [1] of 20.1 µM and a GI50 [2] of 9.79 µM. The TGI [2] was 23.8 µM, the GI50 [3] was 6.14 µM and the TGI [3] was 21 µM. It also gave a GI50 [4] of 1.77 µM, a TGI [4] of 18.4 µM and a GI50 [5] of 2.46 µM. It also gave a TGI [5] of 10.8 µM, a GI50 [6] of 3.38 µM and a TGI [6] of 14 µM. It also gave a GI50 [7] of 2.4 µM, a TGI [7] of 43.9 µM and a GI50 [8] of 3.79 µM. For the same molecule, the TGI [8] was 15.7 µM, the GI50 [9] was 4.22 µM and the TGI [9] was 19.4 µM. The GI50 [10] was 2.55 µM, the TGI [10] was 15 µM and the GI50 [11] was 4.56 µM. The TGI [11] was 59.7 µM, the GI50 [12] was 3.21 µM and the TGI [12] was 24.6 µM. It also gave a GI50 [13] of 7.71 µM, a TGI [13] of 37.9 µM and a GI50 [14] of 6.04 µM. The TGI [14] was 20.7 µM, the GI50 [15] was 3.65 µM and the TGI [15] was 16.4 µM. The GI50 [16] was 3.78 µM, the TGI [16] was 18.4 µM and the GI50 [17] was 5.04 µM. For the same molecule, the TGI [17] was 39.2 µM, the GI50 [18] was 7.14 µM and the TGI [18] was 23.7 µM. It also gave a GI50 [19] of 4.53 µM, a TGI [19] of 35.5 µM and a GI50 [20] of 17.9 µM. The TGI [20] was 41.8 µM, the GI50 [21] was 7.13 µM and the TGI [21] was 24.1 µM. It also gave a GI50 [22] of 2.27 µM, a TGI [22] of 18.1 µM and a GI50 [23] of 3.41 µM. For the same molecule, the TGI [23] was 15.1 µM, the GI50 [24] was 6.42 µM and the TGI [24] was 36.7 µM. The GI50 [25] was 2.11 µM, the TGI [25] was 22.3 µM and the GI50 [26] was 8.81 µM. For the same molecule, the TGI [26] was 42.4 µM, the GI50 [27] was 3.87 µM and the TGI [27] was 24 µM. For the same molecule, the GI50 [28] was 16.7 µM, the TGI [28] was 56.4 µM and the GI50 [29] was 5.02 µM. The TGI [29] was 30.7 µM, the GI50 [30] was 4.22 µM and the TGI [30] was 22.5 µM. For the same molecule, the GI50 [31] was 1.88 µM, the TGI [31] was > 100 µM and the GI50 [32] was 8.46 µM. It also gave a TGI [32] of 25.4 µM, a GI50 [33] of 10.5 µM and a TGI [33] of 25.1 µM. For the same molecule, the GI50 [34] was 4.72 µM, the TGI [34] was 16.7 µM and the GI50 [35] was 5.64 µM. The TGI [35] was 19.6 µM, the GI50 [36] was 6.94 µM and the TGI [36] was 20.8 µM. The GI50 [37] was 1.32 µM, the TGI [37] was 6.81 µM and the GI50 [38] was 3.85 µM. It also gave a TGI [38] of 17.5 µM, a GI50 [39] of 5.81 µM and a TGI [39] of 18.9 µM. For the same molecule, the GI50 [40] was 4.43 µM, the TGI [40] was 31.4 µM and the GI50 [41] was 2.43 µM. The TGI [41] was 10.9 µM, the GI50 [42] was 5.33 µM and the TGI [42] was 20.5 µM. It also gave a GI50 [43] of 2.87 µM, a TGI [43] of 13.9 µM and a GI50 [44] of 2.4 µM. The TGI [44] was 15.6 µM, the GI50 [45] was 7.84 µM and the TGI [45] was 25 µM. The GI50 [46] was 11.4 µM, the TGI [46] was 51.9 µM and the GI50 [47] was 5.97 µM. It also gave a TGI [47] of 24.8 µM, a GI50 [48] of 12.3 µM and a TGI [48] of 26.4 µM. The GI50 [49] was 3.82 µM, the TGI [49] was 18.3 µM and the GI50 [50] was 16.1 µM. For the same molecule, the TGI [50] was 76.2 µM, the GI50 [51] was 4.45 µM and the TGI [51] was 49.4 µM. It also gave a GI50 [52] of 13.1 µM, a TGI [52] of 43.9 µM and a GI50 [53] of 1.95 µM. It also gave a TGI [53] of 45.1 µM, a GI50 [54] of 10.6 µM and a TGI [54] of 26.7 µM. It also gave a GI50 [55] of 4.07 µM, a TGI [55] of 26.9 µM and a GI50 [56] of 10.9 µM. The TGI [56] was 31 µM, the GI50 [57] was 8.35 µM and the TGI [57] was 62.7 µM.

Molecule `CS(=O)(=O)Nc1cc(-c2ccc3ncc(C#N)c(NCc4ccccc4)c3c2)cnc1Cl` has a GI50 [1] of 0.186 µM, a TGI [1] of 2.37 µM and a GI50 [2] of 0.325 µM. The TGI [2] was 6.42 µM, the GI50 [3] was 0.35 µM and the TGI [3] was > 45.4 µM. The GI50 [4] was 0.325 µM, the TGI [4] was > 42.7 µM and the GI50 [5] was 0.0384 µM. For the same molecule, the TGI [5] was 0.435 µM, the GI50 [6] was 0.371 µM and the TGI [6] was > 100 µM. It also gave a GI50 [7] of 0.212 µM, a TGI [7] of 1.07 µM and a GI50 [8] of 0.233 µM. The TGI [8] was > 49.5 µM, the GI50 [9] was 0.431 µM and the TGI [9] was 4.98 µM. For the same molecule, the GI50 [10] was 0.0637 µM, the TGI [10] was 3.75 µM and the GI50 [11] was 0.117 µM. It also gave a TGI [11] of 15.2 µM, a GI50 [12] of 0.177 µM and a TGI [12] of 3.94 µM. For the same molecule, the GI50 [13] was 0.065 µM, the TGI [13] was 0.521 µM and the GI50 [14] was 0.0896 µM. The TGI [14] was 0.667 µM, the GI50 [15] was 0.334 µM and the TGI [15] was 4.36 µM. The GI50 [16] was 0.291 µM, the TGI [16] was 15.6 µM and the GI50 [17] was 0.5 µM. The TGI [17] was 7.74 µM, the GI50 [18] was 0.322 µM and the TGI [18] was 19.2 µM. For the same molecule, the GI50 [19] was 0.327 µM, the TGI [19] was 6.32 µM and the GI50 [58] was 0.178 µM. It also gave a TGI [58] of 10.8 µM, a GI50 [20] of 0.079 µM and a TGI [20] of 0.626 µM. For the same molecule, the GI50 [21] was 0.351 µM, the TGI [21] was > 36.1 µM and the GI50 [22] was 0.34 µM. It also gave a TGI [22] of 3.86 µM, a GI50 [23] of 0.214 µM and a TGI [23] of 1.11 µM. It also gave a GI50 [24] of 0.463 µM, a TGI [24] of 25 µM and a GI50 [25] of 0.164 µM. It also gave a TGI [25] of 7.91 µM, a GI50 [26] of 0.353 µM and a TGI [26] of 2.87 µM. The GI50 [27] was 0.294 µM, the TGI [27] was 7.52 µM and the GI50 [28] was 0.19 µM. The TGI [28] was 1.97 µM, the GI50 [29] was 0.158 µM and the TGI [29] was 2.75 µM. For the same molecule, the GI50 [30] was 0.0337 µM, the TGI [30] was 0.399 µM and the GI50 [31] was 0.311 µM. The TGI [31] was > 100 µM, the GI50 [32] was 0.197 µM and the TGI [32] was 5.22 µM. The GI50 [33] was 0.268 µM, the TGI [33] was 11.6 µM and the GI50 [34] was 0.254 µM. The TGI [34] was 2.79 µM, the GI50 [35] was 0.44 µM and the TGI [35] was 21.1 µM. It also gave a GI50 [36] of 0.205 µM, a TGI [36] of 1.7 µM and a GI50 [37] of 0.146 µM. It also gave a TGI [37] of 0.344 µM, a GI50 [38] of 0.155 µM and a TGI [38] of 2.04 µM. For the same molecule, the GI50 [39] was 0.434 µM, the TGI [39] was > 46.3 µM and the GI50 [40] was 0.111 µM. The TGI [40] was 3.17 µM, the GI50 [41] was 0.192 µM and the TGI [41] was 1.74 µM. For the same molecule, the GI50 [42] was 0.331 µM, the TGI [42] was 6.37 µM and the GI50 [43] was 1.7 µM. For the same molecule, the TGI [43] was 28.9 µM, the GI50 [44] was 0.101 µM and the TGI [44] was 0.498 µM. The GI50 [45] was 0.299 µM, the TGI [45] was 8.27 µM and the GI50 [46] was 0.195 µM. For the same molecule, the TGI [46] was 0.975 µM, the GI50 [47] was 0.347 µM and the TGI [47] was 18 µM. The GI50 [48] was 0.175 µM, the TGI [48] was 10.2 µM and the GI50 [49] was 0.268 µM. The TGI [49] was 11.4 µM, the GI50 [50] was 0.259 µM and the TGI [50] was 1.61 µM. For the same molecule, the GI50 [51] was 0.281 µM, the TGI [51] was 13.9 µM and the GI50 [52] was 0.27 µM. It also gave a TGI [52] of 9.12 µM, a GI50 [53] of 0.0521 µM and a TGI [53] of 2.67 µM. For the same molecule, the GI50 [54] was 0.0764 µM, the TGI [54] was 0.815 µM and the GI50 [55] was 0.0382 µM. For the same molecule, the TGI [55] was 0.334 µM, the GI50 [56] was 0.218 µM and the TGI [56] was 12.7 µM. For the same molecule, the GI50 [57] was 0.364 µM and the TGI [57] was > 39.4 µM.
